Values after ≈ are worked out from the molar mass of the structure shown. Counter-ions that a name gives are not always drawn.
How the values were obtained:
[1] = test system: Citrobacter freundii 1982; assay: MIC in vitro of a 1:4 combination of ceftriaxone with a compound of formula I (Test D); format: cell-based; details: test D
Description: The minimum inhibitory concentration in vitro ([…]) of a 1:4 combination of ceftriaxone with a compound of formula I against Citrobacter freundii 1982 was measured and compiled in Table 2 hereinafter.

E. coli 1346 = assay: Antibacterial activity of the products per se, serial dilution method in liquid medium (Test E); format: cell-based; details: test E, product per se
Source text: The antibacterial activity of the products per se is illustrated on the basis of Table 3 hereinafter, the minimum inhibitory concentration […] in vitro against E. coli 1346 being determined using the serial dilution method in liquid medium: […]

[2] = Table 4, 1:4 combination of ceftriaxone with the compound

Structure (SMILES): Cc1nnc(SCC2=C(C(=O)O)N3C(=O)[C@@H]4[C@H]3[C@@H](CN4C(=O)Nc3ccc(O)cc3)S2)s1 [41(c), (1aS,3aR,6bS)-2-(4-Hydroxy-phenylcarbamoyl)-5-(5-methyl-1,3,4-thiadiazol-2-ylsulphanylmethyl)-1-oxo-4-thia-1,1a,2,3,3a,6b-hexahydro-2,6a-diazacyclobut[cd]indene-6-carboxylic acid sodium salt]
- MIC C. freundii 1982 (D) [1, 2]: 1 µg/mL
- MIC E. coli 1346 (E) (E. coli 1346; Table 4): > 32 µg/mL

Structure (SMILES): O=C(O)C1=C(CO)S[C@@H]2CN(C(=O)Nc3ccc(O)cc3)[C@@H]3C(=O)N1[C@@H]32 [41(d) Byproduct]
- MIC C. freundii 1982 (D) [1, 2]: 1 µg/mL
- MIC E. coli 1346 (E) (E. coli 1346; Table 4): > 32 µg/mL

Structure (SMILES): Cn1nnnc1SCC1=C(C(=O)O)N2C(=O)[C@@H]3[C@H]2[C@@H](CN3C(=O)Nc2ccc(O)cc2)S1 [41(d), (1aS,3aR,6bS)-2-(4-Hydroxy-phenylcarbamoyl)-5-(1-methyl-1H-tetrazol-5-ylsulphanylmethyl)-1-oxo-4-thia-1,1a,2,3,3a,6b-hexahydro-2,6a-diazacyclobut[cd]indene-6-carboxylic acid sodium salt]
- MIC C. freundii 1982 (D) [1, 2]: 0.5 µg/mL
- MIC E. coli 1346 (E) (E. coli 1346; Table 4): > 32 µg/mL

Structure (SMILES): CC(=O)N1C[C@H]2SC(CSc3nnc(C)s3)=C(C(=O)O)N3C(=O)[C@@H]1[C@@H]23 [42(a), (1aS,3aR,6bS)-2-Acetyl-5-(5-methyl-1,3,4-thiadiazol-2-ylsulphanylmethyl)-1-oxo-4-thia-1,1a,2,3,3a,6b-hexahydro-2,6a-diazacyclobut[cd]indene-6-carboxylic acid sodium salt]
- MIC C. freundii 1982 (D) [1, 2]: 1 µg/mL
- MIC E. coli 1346 (E) (E. coli 1346; Table 4): 2 µg/mL

Structure (SMILES): CC(=O)N1C[C@H]2SC(CSc3ccncc3)=C(C(=O)O)N3C(=O)[C@@H]1[C@@H]23 [42(b), (1aS,3aR,6bS)-2-Acetyl-1-oxo-5-(pyridin-4-ylsulphanylmethyl)-4-thia-1,1a,2,3,3a,6b-hexahydro-2,6a-diazacyclobut[cd]indene-6-carboxylic acid sodium salt]
- MIC C. freundii 1982 (D) [1, 2]: 2 µg/mL
- MIC E. coli 1346 (E) (E. coli 1346; Table 4): 0.5 µg/mL

Structure (SMILES): Cn1nnnc1SCC1=C(C(=O)O)N2C(=O)[C@@H]3[C@H]2[C@@H](CN3C(=O)CSc2nnc(N)s2)S1 [42(c), (1aS,3aR,6bS)-2-(2-Amino-1,3,4-thiadiazol-5-ylsulphanylacetyl)-5-(1-methyl-1H-tetrazol-5-ylsulphanylmethyl)-1-oxo-4-thia-1,1a,2,3,3a,6b-hexahydro-2,6a-diazacyclobut[cd]indene-6-carboxylic acid sodium salt]
- MIC C. freundii 1982 (D) [1, 2]: 0.2 µg/mL
- MIC E. coli 1346 (E) (E. coli 1346; Table 4): 16 µg/mL

Structure (SMILES): C=CC1=C(C(=O)O)N2C(=O)[C@@H]3[C@H]2[C@H](C1)CN3C(=O)Nc1ccc(O)cc1 [46(a), (1aS,3aR,6bR)-2-(4-Hydroxy-phenylcarbamoyl)-1-oxo-5-vinyl-1a,2,3,3a,4,6b-hexahydro-1H-2,6a-diazacyclobut[cd]indene-6-carboxylic acid sodium salt]
- MIC C. freundii 1982 (D) [1, 2]: 1 µg/mL
- MIC E. coli 1346 (E) (E. coli 1346; Table 4): 64 µg/mL

Structure (SMILES): C=CC1=C(C(=O)O)N2C(=O)[C@@H]3[C@H]2[C@H](C1)CN3C(=O)Nc1ccc(C(N)=O)cc1 [46(b), (1aS,3aR,6bR)-2-(4-Carbamoyl-phenylcarbamoyl)-1-oxo-5-vinyl-1a,2,3,3a,4,6b-hexahydro-1H-2,6a-diazacyclobut[cd]indene-6-carboxylic acid sodium salt]
- MIC C. freundii 1982 (D) [1, 2]: 0.5 µg/mL
- MIC E. coli 1346 (E) (E. coli 1346; Table 4): > 32 µg/mL

Structure (SMILES): N#C/C=C\C1=C(C(=O)O)N2C(=O)[C@H]3NC[C@@H](C1)[C@H]32 [48(a), (Z)-(1aS,3aR,6bR)-5-(2-Cyanovinyl)-1-oxo-1a,2,3,3a,4,6b-hexahydro-1H-2,6a-diazacyclobut[cd]indene-6-carboxylic acid trifluoroacetate]
- MIC C. freundii 1982 (D) [1, 2]: 4 µg/mL
- MIC E. coli 1346 (E) (E. coli 1346; Table 4): 16 µg/mL

Structure (SMILES): N#C/C=C/C1=C(C(=O)O)N2C(=O)[C@H]3NC[C@@H](C1)[C@H]32 [48(b), (E)-(1aS,3aR,6bR)-5-(2-Cyanovinyl)-1-oxo-1a,2,3,3a,4,6b-hexahydro-1H-2,6a-diazacyclobut[cd]indene-6-carboxylic acid trifluoroacetate]
- MIC C. freundii 1982 (D) [1, 2]: 2 µg/mL
- MIC E. coli 1346 (E) (E. coli 1346; Table 4): 4 µg/mL

Structure (SMILES): N#C/C=C\C1=C(C(=O)O)N2C(=O)[C@@H]3[C@H]2[C@H](C1)CN3C(=O)Nc1ccc(O)cc1 [49(a), (Z) -(1aS,3aR,6bR)-5-(2-Cyanovinyl)-2-(4-hydroxyphenylcarbamoyl)-1-oxo-1a,2,3,3a,4,6b-hexahydro-1H-2,6a-diazacyclobut[cd]indene-6-carboxylic acid sodium salt]
- MIC C. freundii 1982 (D) [1, 2]: 2 µg/mL
- MIC E. coli 1346 (E) (E. coli 1346; Table 4): > 32 µg/mL

Structure (SMILES): N#C/C=C/C1=C(C(=O)O)N2C(=O)[C@@H]3[C@H]2[C@H](C1)CN3C(=O)Nc1ccc(O)cc1 [49(b), (E)-(1aS,3aR,6bR)-5-(2-Cyanovinyl)-2-(4-hydroxyphenylcarbamoyl)-1-oxo-1a,2,3,3a,4,6b-hexahydro-1H-2,6a-diazacyclobut[cd]indene-6-carboxylic acid sodium salt]
- MIC C. freundii 1982 (D) [1, 2]: 1 µg/mL
- MIC E. coli 1346 (E) (E. coli 1346; Table 4): 4 µg/mL

Structure (SMILES): CC(=O)N1C[C@H]2CC(CSc3cc[n+](CC(=O)[O-])cc3)=C(C(=O)O)N3C(=O)[C@@H]1[C@@H]23 [52(a), (1aS,3aR,6bR)-[4-(2-Acetyl-6-carboxy-1-oxo-1a,2,3,3a,4,6b-hexahydro-1H-2,6a-diaza-cyclobut[cd]inden-5-yl-methylsulphanyl)-pyridinio]-acetate bromoacetate (1:3.18) sodium salt (1:4.18)]
- MIC C. freundii 1982 (D) [1, 2]: 4 µg/mL
- MIC E. coli 1346 (E) (E. coli 1346; Table 4): 8 µg/mL

Structure (SMILES): O=C([O-])C1=C(CSc2cc[n+](Cc3ccccc3)cc2)C[C@@H]2CN(C(=O)C(F)(F)F)[C@@H]3C(=O)N1[C@H]23 [52(d), (1aS,3aR,6bR)-5-(1-Benzyl-pyridin-4-yliosulphanylmethyl)-1-oxo-2-trifluoroacetyl-1a,2,3,3a,4,6b-hexahydro-1H-2,6a-diazacyclobut[cd]indene-6-carboxylate]
- MIC C. freundii 1982 (D) [1, 2]: 1 µg/mL
- MIC E. coli 1346 (E) (E. coli 1346; Table 4): 2 µg/mL (≈ 3.97 µM)

Structure (SMILES): O=C([O-])Cc1ccc[n+](CC2=C(C(=O)O)N3C(=O)[C@@H]4[C@H]3[C@H](C2)CN4C(=O)Nc2ccc(O)cc2)c1 [57(b), (1aS,3aR,6bR)-[1-[6-Carboxy-2-(4-hydroxy-phenylcarbamoyl)-1-oxo-1a,2,3,3a,4,6b-hexahydro-1H-2,6a-diazacyclobut[cd]inden-5-ylmethyl]-pyridin-3-ylio]-acetate]
- MIC C. freundii 1982 (D) [1, 2]: 0.25 µg/mL
- MIC E. coli 1346 (E) (E. coli 1346; Table 4): > 32 µg/mL

Structure (SMILES): CC(=O)N1C[C@H]2CC(COC(N)=O)=C(C(=O)O)N3C(=O)[C@@H]1[C@@H]23 [58(a), (1aS,3aR,6bR)-2-Acetyl-5-carbamoyloxymethyl-1-oxo-1a,2,3,3a,4,6b-hexahydro-1H-2,6a-diazacyclobut[cd]indene-6-carboxylic acid sodium salt]
- MIC C. freundii 1982 (D) [1, 2]: 2 µg/mL
- MIC E. coli 1346 (E) (E. coli 1346; Table 4): > 32 µg/mL

Structure (SMILES): NC(=O)OCC1=C(C(=O)O)N2C(=O)[C@@H]3[C@H]2[C@H](C1)CN3C(=O)Cc1cccs1 [58(b), (1aS, 3aR,6bR)-5-Carbamoyloxymethyl-1-oxo-2-(thiophen-2-yl-acetyl)-1a,2,3,3a,4,6b-hexahydro-1H-2,6a-diazacyclobut[cd]indene-6-carboxylic acid sodium salt]
- MIC C. freundii 1982 (D) [1, 2]: 0.5 µg/mL
- MIC E. coli 1346 (E) (E. coli 1346; Table 4): 16 µg/mL

Structure (SMILES): CS(=O)(=O)N1C[C@H]2CC(COC(N)=O)=C(C(=O)O)N3C(=O)[C@@H]1[C@@H]23 [58(c), (1aS,3aR,6bR)-5-Carbamoyloxymethyl-2-methylsulphonyl-1-oxo-1a,2,3,3a,4,6b-hexahydro-1H-2,6a-diazacyclobut[cd]indene-6-carboxylic acid sodium salt]
- MIC C. freundii 1982 (D) [1, 2]: 0.5 µg/mL
- MIC E. coli 1346 (E) (E. coli 1346; Table 4): 0.5 µg/mL

Structure (SMILES): NC(=O)OCC1=C(C(=O)O)N2C(=O)[C@@H]3[C@H]2[C@H](C1)CN3C(=O)C(F)(F)F [58(d), (1aS,3aR,6bR)-5-Carbamoyloxymethyl-1-oxo-2-trifluoroacetyl-1a,2,3,3a,4,6b-hexahydro-1H-2,6a-diazacyclobut[cd]indene-6-carboxylic acid sodium salt]
- MIC C. freundii 1982 (D) ([1]; Table 5, particularly preferred products, 1:4 combination with ceftriaxone): 0.5 µg/mL
- MIC E. coli 1346 (E) (E. coli 1346; Table 5, particularly preferred products): 1 µg/mL

Structure (SMILES): NC(=O)OCC1=C(C(=O)O)N2C(=O)[C@@H]3[C@H]2[C@H](C1)CN3C(=O)CSc1nnc(N)s1 [58(f), (1aS,3aR,6bR)-2-(5-Amino-1,3,4-thiadiazol-2-ylsulphanylacetyl)-5-carbamoyloxymethyl-1-oxo-1a,2,3,3a,4,6b-hexahydro-1H-2,6a-diazacyclobut[cd]indene-6-carboxylic acid sodium salt]
- MIC C. freundii 1982 (D) [1, 2]: 0.12 µg/mL
- MIC E. coli 1346 (E) (E. coli 1346; Table 4): 8 µg/mL

Structure (SMILES): NC(=O)OCC1=C(C(=O)O)N2C(=O)[C@@H]3[C@H]2[C@H](C1)CN3C(=O)CSc1ccncc1 [58(g), (1aS,3aR,6bR)-5-Carbamoyloxymethyl-1-oxo-2-pyridin-4-ylsulphanylacetyl-1a,2,3,3a,4,6b-hexahydro-1H-2,6a-diazacyclobut[cd]indene-6-carboxylic acid sodium salt]
- MIC C. freundii 1982 (D) [1, 2]: 0.25 µg/mL
- MIC E. coli 1346 (E) (E. coli 1346; Table 4): 8 µg/mL

Structure (SMILES): NC(=O)OCC1=C(C(=O)O)N2C(=O)[C@@H]3[C@H]2[C@H](C1)CN3C(=O)CNc1ccccc1 [58(h), (1aS,3aR,6bR)-5-Carbamoyloxymethyl-1-oxo-2-phenylaminoacetyl-1a,2,3,3a,4,6b-hexahydro-1 H-2,6a-diazacyclobut[cd]indene-6-carboxylic acid sodium salt]
- MIC C. freundii 1982 (D) [1, 2]: 1 µg/mL
- MIC E. coli 1346 (E) (E. coli 1346; Table 4): 32 µg/mL

Structure (SMILES): COC(=O)CN1C[C@H]2CC(COC(N)=O)=C(C(=O)O)N3C(=O)[C@@H]1[C@@H]23 [59(b), (1aS,3aR,6bR)-5-Carbamoyloxymethyl-2-methoxycarbonylmethyl-1-oxo-1a,2,3,3a,4,6b-hexahydro-1H-2,6a-diazacyclobut[cd]indene-6-carboxylic acid sodium salt]
- MIC C. freundii 1982 (D) [1, 2]: 0.5 µg/mL
- MIC E. coli 1346 (E) (E. coli 1346; Table 4): 2 µg/mL
